# Measurements from patent publication US12162850B2, “Formulations” (Betagenon AB, priority 2019, dated 2024).
# Tests used:
# [1] = Particle size analysis of dry-milled products (laser diffraction, Shimadzu SALD-2300); type: physicochemical
# Description: Milling was performed for Examples 1a to 1c using an air jet mill (Equipment code: CP-AJM-01; Promas engineers) with the following parameters: Micronisation was repeated in all examples by performing the air jet milling for a second time using the same parameters. This allowed the particle size D90 to be reduced to less than 10 μm. [table] Four drops of Tween 20 were added to 25 mL of water and the mixture was sonicated for 3 minutes to form the dispersant solution. 0.05 g of milled material was transferred into a 250 mL glass beaker. 25 mL of the dispersant solution (Tween 20/water mixture) was added to the beaker with continuous swirling for 2 to 3 minutes. The suspension was transferred into the measuring unit and the particle size distribution measurements were conducted in triplicate.
# [2] = Single dose oral pharmacokinetic studies in rabbits; type: in vivo, male New Zealand White rabbits; conditions: for Plasma concentration, mean: 90 mg/kg b.w. oral; for Cmax / MRT last / Tmax / AUC(0-t) / AUC(0-inf) / half-life: male, New Zealand White, plasma, po
# Description: The studies detailed below (and referred to as Examples 2 to 8) were conducted to provide comparative single dose oral pharmacokinetics data for Compound 1, as well as sodium and potassium salts of that compound, using non-coated and enteric-coated capsules in male New Zealand White rabbits.
# Compound 1 was made using the process described in WO 2011/004162 and milled as described for Example 1c. The non-coated or enteric coated gelatin capsules were individually filled with 180 mg of dry-milled Compound 1 together with accompanying excipients as indicated. Both capsule types were filled with Compound 1 together with 1.8 mg of sodium docusate, 0.18 mg of PVP K30 and 9 mg of mannitol.
# Similarly, Compound 2, non-coated or enteric coated gelatin capsules were individually filled with 180 mg of dry-milled Compound 2 (as obtained in Example 1f) together with 1.8 mg of sodium docusate, 0.18 mg of PVP K30 and 9 mg of mannitol.
# For Compound 3, non-coated or enteric coated gelatin capsules were individually filled with 90 mg of dry-milled Compound 3 (as obtained in Example 1i) together with 0.90 mg of sodium docusate, 0.09 mg of PVP K30 and 4.50 mg of mannitol.
# 40 mL of the 2% w/v methyl cellulose solution was added to a 250 mL conical flask together with 10 g of 2 mm glass beads, and vigorously stirred. Compound 1 (720 mg) was slowly added to the solution and the mixture was with continuously stirred for 1 h. The homogenate was transferred to separate flask and its pH recorded. The suspension formulation was prepared before administration to the animals.
# Adult healthy male New Zealand white rabbits aged approximately 2 to 3 months old were used for experimentation after 7 days of acclimatization.
# To dose the filled capsules, a soft plastic dosing tube was used. The filled capsule was inserted into the dosing tube so that the short end of the capsule protrudes slightly from the tip of the tube. The tip of the capsule was dipped in mineral oil to aid swallowing.
# To dose the suspension, an infant feeding tube was used. The feeding tube was inserted through the mouth of the rabbit to the oesophagus and the stomach, and ascertained that it has not been placed in the trachea before dosing to the animals. The suspension of the Compound 1 was administered through the feeding tube. After the administration of the suspension, drinking water of approximately 2.0-2.5 mL was administered to flush out the contents in the feeding tube.
# The animals were restrained in a rabbit restrainer and blood samples (400-500 μL/time point) were collected via the central ear artery at 0.16, 0.25, 0.50, 1.0, 2.0, 4.0, 6.0, 8.0, 24.0, 48.0 and 72 hours post-dosing. Collected blood specimens were centrifuged at 4000 or 6000 rpm, 4° C. for 10 minutes and plasma samples were separated and stored at −80° C. until analysis.
# Concentrations of the analyte of Compound 1 in New Zealand white rabbits was determined using an API 3200 Q-trap LC-MS/MS system.
# Chromatographic separation was achieved on Zorbax C18, 50×4.6 mm, 5 μm column with methanol-0.1% formic acid as mobile phase with gradient elution. The flow rate was set at 1.0 mL min^−1. Detection was accomplished by a triple-quadrupole tandem mass spectrometer in multiple-reaction monitoring (MRM) scanning via electrospray ionization source, applied in the positive mode. The optimised mass transition ion-pairs for quantitation were m/z 379.999→125.000 for the compound 1 and m/z 376.165→165.00 for the ISD (Haloperidol). Calibration plots were linear over the range of 11.062 to 20594.820 ng/mL.
# The data of plasma concentration to respective time points for the analyte Compound 1 were used for the pharmacokinetic analysis. Pharmacokinetic analysis was performed using non-compartmental analysis (NCA) module of Phoenix WinNonlin 6.3 software to determine the following pharmacokinetic parameters: • Cmax • Tmax • AUC0-t • AUC0-∞ • T1/2 • MRT […]
# [3] = after 1st milling (air jet mill)
# [4] = after 2nd milling (air jet mill)
# [5] = rabbit, 25 mg/kg, enteric coated capsule with MgO, 25 mg/kg b.w. oral single dose, rabbit plasma (Example 9)
# [6] = rabbit, 25 mg/kg, enteric coated capsule with mannitol, 25 mg/kg b.w. oral single dose, rabbit plasma (Example 10)
# [7] = rabbit, 53 mg/kg, enteric coated capsule with MgO, 53 mg/kg b.w. (equivalent to 50 mg/kg Compound 1) oral single dose, rabbit plasma (Example 11)
# [8] = rabbit, 90 mg/kg, enteric coated capsule, 90 mg/kg b.w. oral single dose, rabbit plasma (Examples 5, 6, 7)
# [9] = rabbit, 90 mg/kg, non-coated capsule, 90 mg/kg b.w. oral single dose, rabbit plasma (Examples 2, 3, 4)
structure (smiles),measurement,setting,value
"O=C(Nc1nc(=O)n(Cc2ccc(Cl)cc2)s1)c1ccc(Cl)cc1.[Na] [Compound 2, 4-chloro-N-[2-[(4-chlorophenyl)methyl]-3-oxo-1,2,4-thiadiazol-5-yl]benzamide sodium salt]",Particle size distribution D10,[1]; [3],0.508 μm
same,Particle size distribution D50,[1]; [3],3.58 μm
same,Particle size distribution D90,[1]; [3],11.5 μm
same,Particle size distribution D100,[1]; [3],31.1 μm
same,Particle size distribution D10,[1]; [4],0.414 μm
same,Particle size distribution D50,[1]; [4],2.70 μm
same,Particle size distribution D90,[1]; [4],8.29 μm
same,Particle size distribution D100,[1]; [4],24.0 μm
same,Particle size distribution D10,[1]; before milling,1.11 μm
same,Particle size distribution D50,[1]; before milling,7.62 μm
same,Particle size distribution D90,[1]; before milling,31.7 μm
same,Particle size distribution D100,[1]; before milling,185 μm
same,"Plasma concentration, mean","[2]; 0.00 h, enteric coated capsule, rabbit",0.000 ng/mL
same,"Plasma concentration, mean","[2]; 0.00 h, non-coated capsule, rabbit",0.000 ng/mL
same,"Plasma concentration, mean","[2]; 0.16 h, enteric coated capsule, rabbit",0.000 ng/mL
same,"Plasma concentration, mean","[2]; 0.16 h, non-coated capsule, rabbit",0.000 ng/mL
same,"Plasma concentration, mean","[2]; 0.25 h, enteric coated capsule, rabbit",0.000 ng/mL
same,"Plasma concentration, mean","[2]; 0.25 h, non-coated capsule, rabbit",51.798 ng/mL
same,"Plasma concentration, mean","[2]; 0.50 h, enteric coated capsule, rabbit",0.000 ng/mL
same,"Plasma concentration, mean","[2]; 0.50 h, non-coated capsule, rabbit",206.386 ng/mL
same,"Plasma concentration, mean","[2]; 1.00 h, enteric coated capsule, rabbit",9.027 ng/mL
same,"Plasma concentration, mean","[2]; 1.00 h, non-coated capsule, rabbit",594.725 ng/mL
same,"Plasma concentration, mean","[2]; 2.00 h, enteric coated capsule, rabbit",13.276 ng/mL
same,"Plasma concentration, mean","[2]; 2.00 h, non-coated capsule, rabbit",1377.183 ng/mL
same,"Plasma concentration, mean","[2]; 4.00 h, enteric coated capsule, rabbit",624.216 ng/mL
same,"Plasma concentration, mean","[2]; 4.00 h, non-coated capsule, rabbit",15776.855 ng/mL
same,"Plasma concentration, mean","[2]; 6.00 h, enteric coated capsule, rabbit",11866.638 ng/mL
same,"Plasma concentration, mean","[2]; 6.00 h, non-coated capsule, rabbit",46144.063 ng/mL
same,"Plasma concentration, mean","[2]; 8.00 h, enteric coated capsule, rabbit",18413.782 ng/mL
same,"Plasma concentration, mean","[2]; 8.00 h, non-coated capsule, rabbit",71215.612 ng/mL
same,"Plasma concentration, mean","[2]; 24.00 h, enteric coated capsule, rabbit",99879.409 ng/mL
same,"Plasma concentration, mean","[2]; 24.00 h, non-coated capsule, rabbit",98809.233 ng/mL
same,"Plasma concentration, mean","[2]; 48.00 h, enteric coated capsule, rabbit",101178.612 ng/mL
same,"Plasma concentration, mean","[2]; 48.00 h, non-coated capsule, rabbit",93029.388 ng/mL
same,"Plasma concentration, mean","[2]; 72.00 h, enteric coated capsule, rabbit",90966.319 ng/mL
same,"Plasma concentration, mean","[2]; 72.00 h, non-coated capsule, rabbit",84071.553 ng/mL
same,improvement in systemic exposure compared with the milled free base active ingredient,"[2]; dry milled, capsules, 90 mg/kg oral, rabbit",greatest improvements
same,increase in the systemic exposure compared to a standard suspension of the active ingredient (example 8),"[2]; dry milled, non-coated or enteric-coated capsules, 90 mg/kg oral, rabbit",up to six-fold
same,systemic exposure when formulated together with an alkaline excipient,"[2]; enteric coated capsule with MgO, 53 mg/kg oral, rabbit (Example 11)",significant amount of systemic exposure
same,AUCextrap,"[2]; enteric coated capsule, 90 mg/kg b.w. oral single dose, rabbit plasma (Examples 5, 6, 7)",88.81 ± 3.497%
same,systemic exposure when formulated with an alkaline excipient in comparison with formulation in the absence of an alkaline excipient,"[2]; enteric coated capsules, 25 mg/kg oral, rabbit, Example 9 (MgO) vs Example 10 (mannitol)",increase
same,Cmax,[2]; [5],49600 ± 4800 ng/mL
same,MRT last,[2]; [5],27.67 ± 0.11 h
same,Tmax,[2]; [5],24 h
same,Cmax,[2]; [6],47400 ± 7060 ng/mL
same,MRT last,[2]; [6],30 ± 1.73 h
same,Tmax,[2]; [6],32 ± 13.9 h
same,AUC(0-t),[2]; [7],8930 ± 1190 µg·h/mL
same,Cmax,[2]; [7],153000 ± 24300 ng/mL
same,MRT last,[2]; [7],40.9 ± 1.43 h
same,AUC(0-inf),[2]; [8],55700 ± 22700 µg·h/mL
same,AUC(0-t),[2]; [8],5710 ± 1140 µg·h/mL
same,Cmax,[2]; [8],101000 ± 17000 ng/mL
same,MRT last,[2]; [8],43 ± 1.59 h
same,Tmax,[2]; [8],32 ± 13.9 h
same,half-life,[2]; [8],368 ± 109 h
same,AUC(0-inf),[2]; [9],38100 ± 34700 µg·h/mL
same,AUC(0-t),[2]; [9],5980 ± 2270 µg·h/mL
same,Cmax,[2]; [9],99000 ± 34600 ng/mL
same,MRT last,[2]; [9],38.8 ± 1.2 h
same,Tmax,[2]; [9],32 ± 13.9 h
same,half-life,[2]; [9],227 ± 140 h
same,AUCextrap,"[2]; non-coated capsule, 90 mg/kg b.w. oral single dose, rabbit plasma (Examples 2, 3, 4)",79.01 ± 8.87%
